According to US8658675B2, “Pyridin-4-yl derivatives” (Actelion Pharmaceuticals Ltd., priority 2009, dated 2014):

What was measured:
human S1P1 receptor = human S1P1 receptor (Homo sapiens, UniProt P21453); experiment: GTPγS assay to determine EC50 values; type: biochemical; settings: membranes of CHO cells expressing recombinant human S1P1 receptor; 35S-GTPγS binding
Description: GTPγS binding assays are performed in 96 well microtiter plates (Nunc, 442587) in a final volume of 200 μl, using membrane preparations of CHO cells expressing recombinant human S1P1 receptor. Assay conditions are 20 mM Hepes (Fluka, 54461), 100 mM NaCl (Fluka, 71378), 5 mM MgCl2 (Fluka, 63064), 0.1% BSA (Calbiochem, 126609), 1 μM GDP (Sigma, G-7127), 2.5% DMSO (Fluka, 41644), […] ^35S-GTPγS (Amersham Biosciences, SJ1320). The pH is 7.4. Test compounds are dissolved and diluted in 100% DMSO and pre-incubated at room temperature for 30 min in 150 μl of the above assay buffer, in the absence of ^35S-GTPγS. After addition of 50 μl of ^35S-GTPγS, the assay is incubated for 1 h at rt. The assay is terminated by transfer of the reaction mixture to a Multiscreen plate (Millipore, MAHFC1H60) using a cell harvester from Packard Biosciences, and the plates are washed with ice-cold 10 mM Na2HPO4/NaH2PO4 (70%/30%), dried, sealed at the bottom and, after addition of 25 μl MicroScint20 (Packard Biosciences, order#6013621), sealed on the top. Membrane-bound ^35S-GTPγS is measured with a TopCount from Packard Biosciences.
EC50 is the concentration of agonist inducing 50% of the maximal specific ^35S-GTPγS binding. Specific binding is determined by subtracting non-specific binding from maximal binding. Maximal binding is the amount of cpm bound to the Multiscreen plate in the presence of 10 μM of S1P. Non-specific binding is the amount of binding in the absence of an agonist in the assay.
Agonistic activities (EC50 values) of all exemplified compounds have been measured.

circulating lymphocytes = experiment: Assessment of in vivo efficacy: circulating lymphocytes after oral administration; design: species or system normotensive male Wistar rats; settings: Rattus norvegicus, Lymphocyte; 6 h after oral administration of 10 mg/kg, male Wistar rats, compared to vehicle group; read-out: Lymphocyte counts
Description: The efficacy of the compounds of Formula (I) is assessed by measuring the circulating lymphocytes after oral administration of 3 to 30 mg/kg of a compound of Formula (I) to normotensive male Wistar rats. The animals are housed in climate-controlled conditions with a 12 h-light/dark cycle, and have free access to normal rat chow and drinking water. Blood is collected before and 3, 6 and 24 h after drug administration. Full blood is subjected to hematology using Advia Hematology system (Bayer Diagnostics, Zurich, Switzerland).
All data are presented as mean±SEM. Statistical analyses are performed by analysis of variance (ANOVA) using Statistica (StatSoft) and the Student-Newman-Keuls procedure for multiple comparisons. The null hypothesis is rejected when p<0.05.
Lymphocyte counts 6 h after oral administration have been measured for 23 out of 30 exemplified compounds and are in the range of −42% to −80% with an average of −63%.

rat trachea rings [1] = experiment: Measurement of isometric force development: rat trachea ring constriction; design: species or system Female Wistar rats; settings: for % trachea constriction at 1 μM: compound at 1 μM, in % of the constriction induced by 50 mM KCl; for potential to constrict rat trachea rings (comparison in words): compared to closest prior art analogues of WO 2008/029371 or to Example 2
Description: Animals were obtained from RCC Ltd (Füllinsdorf, Switzerland). Female Wistar rats were euthanized by exposure to CO2. The tracheae were excised and rings from the lower segments were prepared. Rings of trachea were suspended in tissue baths (10 mL) containing Krebs-Henseleit buffer of the following composition (mM): NaCl 115; KCl 4.7; MgSO4 1.2; KH2PO4 1.5; CaCl2 2.5; NaHCO3 25; glucose 10. Bathing solution was maintained at 37° C. and aerated with 95% O2/5% CO2 (pH 7.4). A resting force of 2 g (20 mN) was applied to the ring preparation, and changes in force generation were measured using an isometric force recorder (EMKA Technologies Inc, Paris, France). Viability of rings was assessed by exposure to a depolarizing concentration of KCl (50 mM). Contraction of trachea was expressed as a percentage of the response to KCl.
All compounds were prepared as stock solutions of 0.3 mM in pure DMSO. Compounds were added to the bath (10 mL) in a volume of 33 μL to give a final bath concentration of DMSO of 0.33%.
Contraction of trachea was measured for 15 out of 30 exemplified compounds.

rat trachea rings [2] = experiment: as above; design: species or system Female Wistar rats; settings: compound at 10 μM; in % of the constriction induced by 50 mM KCl

human S1P1 receptor, sequence (P21453 whole entry): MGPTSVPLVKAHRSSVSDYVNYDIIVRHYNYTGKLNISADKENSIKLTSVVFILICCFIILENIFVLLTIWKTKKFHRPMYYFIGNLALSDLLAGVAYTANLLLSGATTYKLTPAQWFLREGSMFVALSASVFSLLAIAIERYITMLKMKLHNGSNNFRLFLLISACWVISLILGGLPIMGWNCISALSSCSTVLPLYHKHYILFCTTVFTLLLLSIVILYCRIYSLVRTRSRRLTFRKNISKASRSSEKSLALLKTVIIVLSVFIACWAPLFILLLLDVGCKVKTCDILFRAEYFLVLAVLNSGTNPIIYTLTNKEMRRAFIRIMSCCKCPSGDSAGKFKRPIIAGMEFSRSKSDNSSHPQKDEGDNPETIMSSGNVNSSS

| SMILES | EC50 (human S1P1 receptor) [nM] | change in vivo at 10 mg/kg (circulating lymphocytes) [%] | % trachea constriction at 1 μM (rat trachea rings [1]) [%] | % trachea constriction at 10 μM (rat trachea rings [2]) [%] | potential to constrict rat trachea rings (comparison in words) (rat trachea rings [1]) |
| --- | --- | --- | --- | --- | --- |
| CCc1cc(-c2noc(-c3cc(OC)nc(C4CCCC4)c3)n2)cc(C)c1OC[C@@H](O)CN(C)C(=O)CO [Example 10, N-((2S)-3-{4-[5-(2-Cyclopentyl-6-methoxy-pyridin-4-yl)-[1,2,4]oxadiazol-3-yl]-2-ethyl-6-methyl-phenoxy}-2-hydroxy-propyl)-2-hydroxy-N-methyl-acetamide] | 2.6 | -68 | <5 | <5 | – |
| CCc1cc(-c2noc(-c3cc(OC)nc(C4CCCC4)c3)n2)cc(C)c1NS(C)(=O)=O [Example 19, N-{4-[5-(2-Cyclopentyl-6-methoxy-pyridin-4-yl)-[1,2,4]oxadiazol-3-yl]-2-ethyl-6-methyl-phenyl}-methanesulfonamide] | 1 | -61 | <5 | <5 | – |
| COc1cc(-c2nc(-c3cc(C)c(NS(C)(=O)=O)c(Cl)c3)no2)cc(C2CCCC2)n1 [Example 12, N-{2-Chloro-4-[5-(2-cyclopentyl-6-methoxy-pyridin-4-yl)-[1,2,4]oxadiazol-3-yl]-6-methyl-phenyl}-methanesulfonamide] | 0.3 | -64 | <5 | <5 | – |
| CCc1cc(-c2noc(-c3cc(OC)nc(C(CC)CC)c3)n2)cc(C)c1OC[C@@H](O)CNC(=O)CO [Example 6, N-[(2S)-3-(2-Ethyl-4-{5-[2-(1-ethyl-propyl)-6-methoxy-pyridin-4-yl]-[1,2,4]oxadiazol-3-yl}-6-methyl-phenoxy)-2-hydroxy-propyl]-2-hydroxy-acetamide] | 0.6 | -59 | <5 | 100 | significantly reduced potential to constrict rat trachea rings |
| CCc1cc(-c2noc(-c3cc(OC)nc(C(CC)CC)c3)n2)cc(C)c1OC[C@@H](O)CO [Example 1, (S)-3-(2-Ethyl-4-{5-[2-(1-ethyl-propyl)-6-methoxy-pyridin-4-yl]-[1,2,4]oxadiazol-3-yl}-6-methyl-phenoxy)-propane-1,2-diol] | 2.7 | -63 | <5 | 24 | significantly reduced potential to constrict rat trachea rings |
| CCc1cc(-c2noc(-c3cc(CCC(C)C)nc(OC)c3)n2)cc(C)c1OC[C@@H](O)CNC(=O)CO [Example 16, N-[(2S)-3-(2-Ethyl-4-{5-[2-methoxy-6-(3-methyl-butyl)-pyridin-4-yl]-[1,2,4]oxadiazol-3-yl}-6-methyl-phenoxy)-2-hydroxy-propyl]-2-hydroxy-acetamide] | 0.7 | -73 | <5 | – | markedly reduced potential to constrict rat trachea rings |
| CCc1cc(-c2noc(-c3cc(OC)nc(C(CC)CC)c3)n2)cc(C)c1NS(C)(=O)=O [Example 18, N-(2-Ethyl-4-{5-[2-(1-ethyl-propyl)-6-methoxy-pyridin-4-yl]-[1,2,4]oxadiazol-3-yl}-6-methyl-phenyl)-methanesulfonamide] | 2.5 | -42 | <5 | <5 | – |
| CCc1cc(-c2noc(-c3cc(OC)nc(C4CCCCC4)c3)n2)cc(C)c1OC[C@@H](O)CNC(=O)CO [Example 8, N-((2S)-3-{4-[5-(2-Cyclohexyl-6-methoxy-pyridin-4-yl)-[1,2,4]oxadiazol-3-yl]-2-ethyl-6-methyl-phenoxy}-2-hydroxy-propyl)-2-hydroxy-acetamide] | 10.8 | -58 | <5 | – | – |
| CCc1cc(-c2noc(-c3cc(OC)nc(C4CCCCC4)c3)n2)cc(C)c1OC[C@@H](O)CO [Example 4, (S)-3-{4-[5-(2-Cyclohexyl-6-methoxy-pyridin-4-yl)-[1,2,4]oxadiazol-3-yl]-2-ethyl-6-methyl-phenoxy}-propane-1,2-diol] | 6.4 | -61 | <5 | – | – |
| COc1cc(-c2nc(-c3cc(C)c(OC[C@@H](O)CO)c(Cl)c3)no2)cc(C2CCCC2)n1 [Example 13, (S)-3-{2-Chloro-4-[5-(2-cyclopentyl-6-methoxy-pyridin-4-yl)-[1,2,4]oxadiazol-3-yl]-6-methyl-phenoxy}-propane-1,2-diol] | 1 | -60 | <5 | – | – |
| CCc1cc(-c2noc(-c3cc(OC)nc(C4CCCC4)c3)n2)cc(C)c1OC[C@@H](O)CO [Example 2, (S)-3-{4-[5-(2-Cyclopentyl-6-methoxy-pyridin-4-yl)-[1,2,4]oxadiazol-3-yl]-2-ethyl-6-methyl-phenoxy}-propane-1,2-diol] | 0.9 | -70 | <5 | <5 | markedly reduced potential to constrict rat trachea rings |
